This passage reports IC50 results from patent US10538555B2, “Macrocyclic inhibitors of the PD-1/PD-L1 and CD80(B7-1)/PD-L1 protein/protein interactions” (BRISTOL-MYERS SQUIBB COMPANY, priority 2014, dated 2020).

“And” between values parts separate entries of the source, which are not always exact repeats. Identical values can stand only once. *1 amine or outer side, *2 acyl side, *3 side chain or, on linkers, in order; H or OH if unused. Where a SMILES comes first, the peptide text is derived from it. Bridges are numbered along the chain shown (N, C = ends). [ ]: non-standard residue; d: D form. ξ: configuration not given here. X5 = O=C(O)CC[C@H](N[*:1])C(=O)C1C[C@H](O)C[C@H]1C(=O)[*:2]; Trp(1-CH2COOH) = N[C@@H](Cc1cn(CC(=O)O)c2ccccc12)C(=O)O; Phe(3,4,5-F3) = N[C@@H](Cc1cc(F)c(F)c(F)c1)C(=O)O; Trp(1-Me) = Cn1cc(C[C@H](N)C(=O)O)c2ccccc21; NMePhe(4-F) = CN[C@@H](Cc1ccc(F)cc1)C(=O)O; Phe(4-F) = N[C@@H](Cc1ccc(F)cc1)C(=O)O; d(cisHyp) = O=C(O)[C@H]1C[C@@H](O)CN1; NMeY = CN[C@@H](Cc1ccc(O)cc1)C(=O)O; NMeIle(3ξ) = CCC(C)[C@H](NC)C(=O)O; Hyp = O=C(O)[C@@H]1C[C@@H](O)CN1; NMeF = CN[C@@H](Cc1ccccc1)C(=O)O; NMehSer = CN[C@@H](CCO)C(=O)O; NMeNle = CCCC[C@H](NC)C(=O)O; Pip = O=C(O)[C@@H]1CCCCN1; dPip = O=C(O)[C@H]1CCCCN1; NMeA = CN[C@@H](C)C(=O)O; Orn = NCCC[C@H](N)C(=O)O; Dab = NCC[C@H](N)C(=O)O; Dap = NC[C@H](N)C(=O)O

In the assay the target is T1, Human PD-L1/PD-1 (Homo sapiens, UniProt Q9NZQ7).
T1 construct: TVMV protease cleavage site (C); made in house; host or cells: HEK293T cells
T1 sequence (Q9NZQ7 with tags, fused parts or gaps): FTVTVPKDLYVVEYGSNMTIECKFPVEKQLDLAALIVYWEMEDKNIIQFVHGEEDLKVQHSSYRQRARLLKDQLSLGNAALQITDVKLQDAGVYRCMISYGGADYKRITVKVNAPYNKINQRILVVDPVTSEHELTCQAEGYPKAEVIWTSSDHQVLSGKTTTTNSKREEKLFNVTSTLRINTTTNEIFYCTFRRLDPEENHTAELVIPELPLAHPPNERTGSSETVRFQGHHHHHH
The experiment in a line: HTRF Human PD-L1/PD-1 binding assay (PD-1-Ig/PD-L1-His). Conditions: PD-L1-His 10 nM, PD-1-Ig 20 nM; class symbol; read-out: HTRF Human PD-L1/PD-1 Binding Assay IC50 Range. The gist of the method:
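Soluble HEK293T-expressed proteins: hPD-L1-His 10 nM, hPD-1-Ig 20 nM final. Cpd + PD-L1 15 min, + PD-1 15 min, + Eu anti-Ig 1 nM/APC anti-His 20 nM 30 min. Buffer dPBS, 0.1% BSA, 0.05% Tween-20. TR-FRET 665/620.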
As to `CCCC[C@H]1C(=O)N(C)[C@@H](CCCC)C(=O)N[C@@H](CCN)C(=O)N[C@H](C(=O)NCC(N)=O)CSCC(=O)N[C@@H](Cc2ccc(O)cc2)C(=O)N2CCCC[C@H]2C(=O)N[C@@H](CC(=O)O)C(=O)N2CCC[C@H]2C(=O)N[C@@H](Cc2cnc[nH]2)C(=O)N[C@@H](CCC(=O)O)C(=O)N2C[C@H](O)C[C@H]2C(=O)N[C@@H](Cc2c[nH]c3ccccc23)C(=O)N[C@@H](CO)C(=O)N[C@@H](Cc2cn(CC(=O)O)c3ccccc23)C(=O)N1C` [Example 1294] ({CH2CO}-Y[Pip]DPHE[Hyp]WS[Trp(1-CH2COOH)][NMeNle][NMeNle][Dab]CG-NH2; thioether N-14), the IC50 is 10 to 99.9 nM.

`CCCC[C@H]1C(=O)N2CCC[C@@H]2C(=O)N[C@@H](CC(=O)O)C(=O)N[C@@H](C(C)C)C(=O)N(C)[C@@H](CCOC)C(=O)N[C@@H](Cc2ccc(O)cc2)C(=O)N2CCC[C@@H]2C(=O)N[C@@H](Cc2c[nH]c3ccccc23)C(=O)N[C@@H](Cc2ccc(O)cc2)C(=O)N[C@@H](CC(C)C)C(=O)N[C@H](C(=O)NCC(N)=O)CSCC(=O)N[C@@H](Cc2ccc(F)cc2)C(=O)N(C)[C@@H](Cc2ccccc2)C(=O)N1C` [Example 9219] ({CH2CO}-[Phe(4-F)][NMeF][NMeNle][dP]DV[NMehSer](Me)Y[dP]WYLCG-NH2; thioether N-13): the IC50 was in the range of 100 to 990 nM. In the case of `CCCC[C@H]1C(=O)N(C)[C@@H](CCCC)C(=O)N[C@@H](CC(C)C)C(=O)N[C@H](C(=O)NCC(N)=O)CSCC(=O)N[C@@H](Cc2ccc(O)cc2)C(=O)N(C)[C@@H](C)C(=O)N[C@@H](CC(=O)O)C(=O)N2CCC[C@H]2C(=O)N[C@@H](Cc2cnc[nH]2)C(=O)N[C@@H](CCC(N)=O)C(=O)N2C[C@H](O)C[C@H]2C(=O)N[C@@H](Cc2c[nH]c3ccccc23)C(=O)N[C@@H](CO)C(=O)N[C@@H](Cc2cn(C)c3ccccc23)C(=O)N1C` [Example 1503] ({CH2CO}-Y[NMeA]DPHQ[Hyp]WS[Trp(1-Me)][NMeNle][NMeNle]LCG-NH2; thioether N-14) it was 1 to 9.9 nM.

As to `CCCC[C@H]1C(=O)N(C)CC(=O)N[C@@H](CC(=O)O)C(=O)N[C@@H](C(C)C)C(=O)N(C)[C@@H](Cc2ccccc2)C(=O)N[C@@H](Cc2ccc(O)cc2)C(=O)N(C)CC(=O)NC(C)(Cc2c[nH]c3ccccc23)C(=O)N[C@@H](Cc2ccc(O)cc2)C(=O)N[C@@H](CC(C)C)C(=O)N[C@H](C(=O)NCC(N)=O)CSCC(=O)N[C@@H](Cc2ccccc2)C(=O)N(C)[C@@H](Cc2ccccc2)C(=O)N1C` (single isomer, unassigned) [Example 3640-A], the IC50 lay in the range of 100 to 990 nM.

As for `CCCC[C@H]1C(=O)N(C)[C@@H](CCOC)C(=O)N[C@@H](CO)C(=O)N[C@H](C(=O)NCC(N)=O)CSCC(=O)N[C@@H](Cc2ccc(O)cc2)C(=O)N(C)[C@@H](C)C(=O)N[C@@H](CC(N)=O)C(=O)N2CCC[C@H]2C(=O)N[C@@H](Cc2c[nH]cn2)C(=O)N[C@@H](CCC(N)=O)C(=O)N2C[C@H](O)C[C@H]2C(=O)N[C@@H](Cc2c[nH]c3ccccc23)C(=O)N[C@@H](CO)C(=O)N[C@@H](Cc2c[nH]c3ccccc23)C(=O)N1C` [Example 10144] ({CH2CO}-Y[NMeA]NPHQ[Hyp]WSW[NMeNle][NMehSer](Me)SCG-NH2; thioether N-14), the IC50 fell in the range of 1 to 9.9 nM.

As for `CCCC[C@H]1C(=O)N(C)[C@@H](CCCC)C(=O)N[C@@H](CCC(=O)O)C(=O)N[C@H](C(=O)NCC(N)=O)CSCC(=O)N[C@@H](Cc2ccc(O)cc2)C(=O)N(C)[C@@H](C)C(=O)N[C@@H](CC(N)=O)C(=O)N2CCC[C@H]2C(=O)N[C@@H](CN)C(=O)N[C@@H](CCC(=O)O)C(=O)N2C[C@H](O)C[C@H]2C(=O)N[C@@H](Cc2c[nH]c3ccccc23)C(=O)N[C@@H](CO)C(=O)N[C@@H](Cc2c[nH]c3ccccc23)C(=O)N1C` [Example 5242] ({CH2CO}-Y[NMeA]NP[Dap]E[Hyp]WSW[NMeNle][NMeNle]ECG-NH2; thioether N-14), the IC50 lay in the range of 1 to 9.9 nM. For the molecule `CCCC[C@H]1C(=O)N(C)[C@@H](CCCC)C(=O)N[C@@H](CCCNC(=N)N)C(=O)N[C@H](C(=O)NCC(N)=O)CSCC(=O)N[C@@H](Cc2ccc(OC)cc2)C(=O)N(C)[C@@H](C)C(=O)N[C@@H](CC(N)=O)C(=O)N2CCC[C@H]2C(=O)N[C@@H](Cc2cnc[nH]2)C(=O)N[C@@H](CCC(=O)O)C(=O)C2C[C@H](O)C[C@H]2C(=O)N[C@@H](Cc2c[nH]c3ccccc23)C(=O)N[C@@H](CCN)C(=O)N[C@@H](Cc2c[nH]c3ccccc23)C(=O)N1C` (stereo partly drawn) [Example 7085] ({CH2CO}-Y(Me)[NMeA]NPH[X5]W[Dab]W[NMeNle][NMeNle]RCG-NH2; thioether N-13), the IC50 was 1 to 9.9 nM. For `CCCC[C@H]1C(=O)N(C)[C@@H](CCCC)C(=O)N[C@@H](CCC(=O)O)C(=O)N[C@H](C(=O)NCC(N)=O)CSCC(=O)N[C@@H](Cc2ccc(OC)cc2)C(=O)N(C)[C@@H](C)C(=O)N[C@@H](CC(=O)O)C(=O)N2CCC[C@H]2C(=O)N[C@@H](Cc2cnc[nH]2)C(=O)N[C@@H](CCC(=O)O)C(=O)N2C[C@H](O)C[C@H]2C(=O)N[C@@H](Cc2c[nH]c3ccccc23)C(=O)N[C@@H](CC(=O)O)C(=O)N[C@@H](Cc2c[nH]c3ccccc23)C(=O)N1C` [Example 7125] ({CH2CO}-Y(Me)[NMeA]DPHE[Hyp]WDW[NMeNle][NMeNle]ECG-NH2; thioether N-14), the IC50 was 10 to 99.9 nM. As for `CCCC[C@H]1C(=O)N[C@@H](CCC(N)=O)C(=O)N2CCCC[C@@H]2C(=O)N[C@@H](Cc2c[nH]c3ccccc23)C(=O)N[C@@H](Cc2ccc(O)cc2)C(=O)N[C@@H](CCCN)C(=O)N[C@H](C(=O)NCC(N)=O)CSCC(=O)N[C@@H](Cc2ccc(F)cc2)C(=O)N(C)[C@@H](Cc2ccccc2)C(=O)N(C)[C@@H](CCCC)C(=O)N2CCC[C@@H]2C(=O)N[C@@H](CC(=O)O)C(=O)N[C@@H](C(C)C)C(=O)N1C` [Example 9218] ({CH2CO}-[Phe(4-F)][NMeF][NMeNle][dP]DV[NMeNle]Q[dPip]WY[Orn]CG-NH2; thioether N-13), the IC50 is 10 to 99.9 nM. Take `CCCC[C@H]1C(=O)N(C)[C@@H](CCCC)C(=O)N[C@@H](CCC(=O)O)C(=O)N[C@H](C(=O)NCC(N)=O)CSCC(=O)N[C@@H](Cc2ccc(OC)cc2)C(=O)N(C)[C@@H](C)C(=O)N[C@@H](CCN)C(=O)N2CCC[C@H]2C(=O)N[C@@H](Cc2cnc[nH]2)C(=O)N[C@@H](CCC(=O)O)C(=O)N2C[C@H](O)C[C@H]2C(=O)N[C@@H](Cc2c[nH]c3ccccc23)C(=O)N[C@@H](CC(=O)O)C(=O)N[C@@H](Cc2c[nH]c3ccccc23)C(=O)N1C` [Example 7132] ({CH2CO}-Y(Me)[NMeA][Dab]PHE[Hyp]WDW[NMeNle][NMeNle]ECG-NH2; thioether N-14): the IC50 was 100 to 990 nM and 10 to 99.9 nM.

For the molecule `CCCC[C@H]1C(=O)N2C[C@H](O)C[C@@H]2C(=O)N[C@@H](CC(=O)O)C(=O)N[C@@H](C(C)C)C(=O)N(C)[C@@H](Cc2ccccc2)C(=O)N[C@@H](CCC(=O)O)C(=O)N2C[C@H](O)C[C@@H]2C(=O)N[C@@H](Cc2c[nH]c3ccccc23)C(=O)N[C@@H](Cc2ccc(O)cc2)C(=O)N[C@@H](CCC(=O)O)C(=O)N[C@H](C(=O)NCC(N)=O)CSCC(=O)N[C@@H](Cc2cc(F)c(F)c(F)c2)C(=O)N(C)[C@@H](Cc2ccc(O)cc2)C(=O)N1C` [Example 10637] ({CH2CO}-[Phe(3,4,5-F3)][NMeY][NMeNle][d(cisHyp)]DV[NMeF]E[d(cisHyp)]WYECG-NH2; thioether N-13), the IC50 is 10 to 99.9 nM.

Take `CCCC[C@H]1C(=O)N2CCC[C@@H]2C(=O)N[C@@H](CC(=O)O)C(=O)N[C@@H](C(C)C)C(=O)N(C)[C@@H](Cc2ccccc2)C(=O)N[C@@H](CCC(=O)O)C(=O)N2CCCC[C@@H]2C(=O)N[C@@H](Cc2c[nH]c3ccccc23)C(=O)N[C@@H](Cc2ccc(O)cc2)C(=O)N[C@@H](CCN)C(=O)N[C@H](C(=O)NCC(N)=O)CSCC(=O)N[C@@H](Cc2cc(F)c(F)c(F)c2)C(=O)N(C)[C@@H](Cc2ccc(O)cc2)C(=O)N1C` [Example 10600] ({CH2CO}-[Phe(3,4,5-F3)][NMeY][NMeNle][dP]DV[NMeF]E[dPip]WY[Dab]CG-NH2; thioether N-13): the IC50 lay in the range of 1 to 9.9 nM. In the case of `CCCC[C@H]1C(=O)N2CCC[C@@H]2C(=O)N[C@@H](CC(N)=O)C(=O)N[C@@H](C(C)C)C(=O)N(C)[C@@H](Cc2ccccc2)C(=O)N[C@@H](CC(=O)O)C(=O)N2CCCC[C@@H]2C(=O)N[C@@H](Cc2c[nH]c3ccccc23)C(=O)N[C@@H](Cc2ccc(O)cc2)C(=O)N[C@@H](CC(C)C)C(=O)N[C@H](C(=O)NCC(N)=O)CSCC(=O)N[C@@H](Cc2cc(F)c(F)c(F)c2)C(=O)N(C)[C@@H](Cc2ccc(F)cc2)C(=O)N1C` [Example 10584] ({CH2CO}-[Phe(3,4,5-F3)][NMePhe(4-F)][NMeNle][dP]NV[NMeF]D[dPip]WYLCG-NH2; thioether N-13) it was 1 to 9.9 nM; in that of `CCCC[C@H]1C(=O)N2CCC[C@@H]2C(=O)N[C@@H](CC(=O)O)C(=O)N[C@@H](C(C)C)C(=O)N(C)[C@@H](C(C)CC)C(=O)N[C@@H](CCC(N)=O)C(=O)N2CCC[C@@H]2C(=O)N[C@@H](Cc2c[nH]c3ccccc23)C(=O)N[C@@H](Cc2ccc(O)cc2)C(=O)N[C@@H](CCCN)C(=O)N[C@H](C(=O)NCC(N)=O)CSCC(=O)N[C@@H](Cc2ccc(F)cc2)C(=O)N(C)[C@@H](Cc2ccccc2)C(=O)N1C` (stereo partly drawn) [Example 9262] ({CH2CO}-[Phe(4-F)][NMeF][NMeNle][dP]DV[NMeIle(3ξ)]Q[dP]WY[Orn]CG-NH2; thioether N-13), 1000 to 10000 nM; in that of `CCCC[C@H]1C(=O)N(C)[C@@H](CCCC)C(=O)N[C@@H](CCCN)C(=O)N[C@H](C(=O)NCC(N)=O)CSCC(=O)N[C@@H](Cc2ccc(O)cc2)C(=O)N2CCC(C)(C)[C@H]2C(=O)N[C@@H](CC(N)=O)C(=O)N2CCCC2C(=O)N[C@@H](Cc2cnc[nH]2)C(=O)N[C@@H](CC(C)C)C(=O)N2C[C@H](O)C[C@H]2C(=O)N[C@@H](Cc2c[nH]c3ccccc23)C(=O)N[C@@H](CO)C(=O)N[C@@H](Cc2c[nH]c3ccccc23)C(=O)N1C` (stereo partly drawn) [Example 1240], 1000 to 10000 nM.
